Assays:
[1] = system: histone H3 and H4; assay: Western blot of histone acetylation in spleen of SCD mice; assay type: in vivo, Townes SCD mice; details: end of treatment
Method: The total splenic cells were processed for histone acetylation levels by Western blot as previously published by our group.
Acidic histone extraction was performed according to standard protocols described previously by our group. […] Western blot quantitative data were collected by densitometry analysis using Image J software.

[2] = system: HbF; assay: Immuno-histology of spleen with FITC anti-HbF antibody in SCD mice; assay type: in vivo, Townes SCD mice; details: end of four-week treatment
Method: (§1) At the end of the 4-week treatment period, approximately 700 μL of blood was collected from each mouse into K3-EDTA tubes (Becton Dickinson, Franklin Lakes, NJ; catalog #365974) by cardiac puncture for plasma isolation after euthanasia using carbon dioxide gas. Subsequently, spleens were harvested for tissue stains, immunohistology, and protein isolation. A part of the spleen was fixed with buffered formaldehyde, embedded in paraffin, and sectioned into ~[…] thick slices for staining with hematoxylin and eosin for histology of spleen structures using a Keyence microscope (Keyence Itasca, IL). The immuno-histology staining was performed on frozen spleen sections using sheep polyclonal antibody against HbF conjugated with FITC (Life Technologies Corporation; catalog #A80-136F) and counterstained with DAPI (4′,6-diamidino-2-phenylindole) to identify the cell nucleus. The spleen tissue was analyzed using the EVOS cell imaging system (ThermoFisher, Waltham, MA) under x40 magnifications. The FITC-positive cells were counted for 15 high-power fields per section, and the mean average of the fields was used for statistical analysis.

[3] = system: Townes SCD mice; assay: Survival, weight and behavior of SCD mice (Study 3); assay type: in vivo, mouse; details: both replicates combined
Method: The study design was the same as in Studies 1 and 2, using SCD mice (4–6 months old) dosed once daily by IP injections, with water, HU (100 mg/kg), vehicle (FORM 3), CT-101 in FORM-3 (10 mg/kg), and combined HU and CT-101 administration. The study period was 4 weeks, and two independent replicates were combined for statistical analysis (n = 8–12). Blood collected at weeks 0, 2, and 4 were analyzed for complete blood count and differential, and F-cells and MFI quantified by flow cytometry. Blood stained with acridine orange (BD retic-count reagent) quantified reticulocytes by flow cytometry [31].

[4] = system: β-YAC transgenic mice; assay: Complete blood counts, differentials and reticulocytes in β-YAC mice (Studies 1 and 2); assay type: in vivo, mouse
Method: (§2) Each treatment group consisted of six mice per group (3 males and 3 females), and data was combined for 2 replicates for statistical analysis (n = 12). We collected tail vein blood at weeks 0, 2, and 4 and analyzed complete blood counts and differentials using an automated Micros 60 device (HORIBA Medical/ABX Diagnostics, Irvine, CA). The level of F-cells and mean fluorescence intensity (MFI) was determined by flow cytometry as previously published [28].

[5] = system: micronuclei; assay: Micronuclei assay in SCD mouse blood; assay type: in vivo, Townes SCD mice; details: end of treatment; p < 0.05
Excerpt: DNA was stained with propidium iodide/phycoerythrin for simultaneous measurement of cell viability, followed by FACSCAN flow cytometry analysis. Propidium iodide/phycoerythrin supplied in the MN analysis kit (Litron Laboratories, Rochester, NY; catalog #PLUS-M) was used as a positive control for CD71-FITC; the number of MN positive cells were counted in cell positive for CD71 and MN as previously published.

[6] = system: spleen; assay: Spleen size and hematoxylin and eosin histology in SCD mice; assay type: in vivo, Townes SCD mice
Method: as §1

[7] = system: HbF; assay: Flow cytometry of F-cells and MFI in peripheral blood of β-YAC mice; assay type: in vivo, β-YAC transgenic mice; details: Study 1; HU 100 mg/kg; week 4; p < 0.001
Method: as §2
Flow cytometry was conducted on the FACSCanto machine (BD Biosciences, San Jose, CA) using gating parameters previously published by our group [28]. Briefly, the forward scatter and side scatter were set to gate erythroid cells, then during FLOWJO analysis, ‘log F-cell’‘ histograms (X-axis) generated to measure the percentage of HbF positive cells (F-cells) from total erythroid cells (Y-axis) after gating on the negative isotype control cells. The mean fluorescence intensity (MFI) to quantify the level of HbF protein per cell was generated by FLOWJO software.

[8] = system: Townes SCD mice; assay: Complete blood counts, differentials and reticulocytes in SCD mice (Study 3); assay type: in vivo, mouse; details: HU 100 mg/kg; throughout the study; p < 0.01
Method: The study period was 4 weeks, and two independent replicates were combined for statistical analysis (n = 8–12). Blood collected at weeks 0, 2, and 4 were analyzed for complete blood count and differential, and F-cells and MFI quantified by flow cytometry. Blood stained with acridine orange (BD retic-count reagent) quantified reticulocytes by flow cytometry [31].

[9] = system: HbF expression; set-up: method as in PMID 26045597; details: adults with SCD; cited from earlier work
[10] = Study 1, HU 100 mg/kg IP five days a week for four weeks

## NC(=O)NO [HU, hydroxyurea]
[1]
  change in total or acetylated histone H3 and H4 levels in spleen: not statistically significance differences
[2]
  increase in HbF-positive erythroid cells in spleen tissue: 1.8 fold
[3]
  survival: 83%
[4]; Study 1, HU 100 mg/kg
  change in reticulocyte counts: increase
[4]; [10]
  decrease in hematocrit: 12%
  decrease in hemoglobin: 12%
  decrease in platelets: 30%
  decrease in total white cell counts: 24%
[4]; Study 1, HU 100 mg/kg, p < 0.001
  change in mean corpuscular volume of RBCs: increasing
[4]; Study 2, HU 100 mg/kg alone or with CT-101 10 mg/kg
  effect on total white blood counts and platelets: decrease
[5]
  increased production of micronuclei: 1.8 fold
[6]; HU 100 mg/kg, four weeks, p < 0.01
  decrease in overall spleen size: 37%
[6]; end of four-week treatment
  spleen histology (hematoxylin and eosin): decrease in hemorrhagic infarcts and maturing extramedullary hematopoiesis
[7]
  increase in F-cells: 5.4 fold
[8]
  decrease in platelet counts: 50%

## O=C(CCCCCCC(=O)Nc1ccccc1)NO [Vorinostat]
[9]
  HbF expression: did not induce HbF expression

From publication PMC12074596, “The histone deacetylase inhibitor CT-101 flips the switch to fetal hemoglobin expression in sickle cell disease mice” (PLOS One, 2025)
